Data reported in patent US7445765B2, “Radiopharmaceutical for diagnostic imaging containing a technetium-99m nitride heterocomplex” (Nihon Medi-Physics Co., Ltd., priority 2000, dated 2008).

Assay: Biodistribution of the 99mTc(N) heterocomplexes in rats (organ uptake, heart accumulation, heart/lung and heart/liver ratios)
Format: in vivo, female Sprague-Dawley rats
Conditions: rats
Protocol: The biodistribution was measured by using female Sprague-Dawley rats (SD rats) weighing 200 g to 250 g. Each of the ^99mTc(N) heterocomplexes purified in the manner described above was diluted with phosphate buffer (0.1 M, pH=7.4) to obtain a final solution having an ethanol content of 10%. After the SD rats were anesthetized with an intramuscular injection of a mixture of ketamine (80 mg/kg) and xilazine (19 mg/kg), the jugular vein of each rat was surgically exposed and 100 μL (300 to 370 kBq) of the solution containing each ^99mTc(N) heterocomplexes prepared in the manner described above was injected in the jugular vein. The rats (n=3) were sacrificed by cervical dislocation at different times post injection. The blood was withdrawn from the heart through a syringe and counted. It was assumed that the whole blood content was 6.5% of the total body weight. The organs were excised from the rats, washed with physiological saline, weighed, and counted in a NaI well counter.
For comparison, Tables 19 and 20 show the results, obtained in the same manner as above, of measuring the biodistribution of (^99mTc) (MIBI) and (^99mTc) (Tf) which have been used as pharmaceuticals for diagnostic imaging for blood flow in myocardium.
Tables 21 to 23 show data showing the variations with time of heart accumulation, heart/lung ratios and heart/liver ratios for the ^99mTc(N) heterocomplexes of the present invention.

COCCC[P]1(CCCOC)CCN(CCOC)CC[P](CCCOC)(CCCOC)[99Tc+]12(#[N])[S]C(N(CCOC)CCOC)=[S]2 [[^99m−Tc(N) (PNP3) (DPODC)^+]]
Heart accumulation (0 min): 3.08 ± 0.31 % ID/g
Heart/liver ratio in biodistribution (0 min): 0.89
Heart/lung ratio in biodistribution (0 min): 2.12
Heart accumulation (2 min): 2.06 ± 0.13 % ID/g
Heart/liver ratio in biodistribution (2 min): 0.56
Heart/lung ratio in biodistribution (2 min): 3.17
Heart accumulation (10 min): 2.37 ± 0.33 % ID/g
Heart/liver ratio in biodistribution (10 min): 0.68
Heart/lung ratio in biodistribution (10 min): 3.54
Heart accumulation (20 min): 2.49 ± 0.31 % ID/g
Heart/liver ratio in biodistribution (20 min): 1.34
Heart/lung ratio in biodistribution (20 min): 5.79
Heart accumulation (30 min): 2.57 ± 0.06 % ID/g
Heart/liver ratio in biodistribution (30 min): 1.98
Heart/lung ratio in biodistribution (30 min): 6.27
Heart accumulation (60 min): 2.26 ± 0.06 % ID/g
Heart/liver ratio in biodistribution (60 min): 5.38
Heart/lung ratio in biodistribution (60 min): 8.37
Heart accumulation (120 min): 2.45 ± 0.41 % ID/g
Heart/liver ratio in biodistribution (120 min): 15.31
Heart/lung ratio in biodistribution (120 min): 12.25

CCOCCN1CC[P](CCCOC)(CCCOC)[99Tc+]2(#[N])([S]C(N(CCOCC)CCOCC)=[S]2)[P](CCCOC)(CCCOC)CC1 [[^99m−Tc(N) (PNP5) (DBODC)^+]]
Heart accumulation (0 min): 5.01 ± 0.16 % ID/g
Heart accumulation (2 min): 3.94 ± 0.32 % ID/g
Heart accumulation (10 min): 3.69 ± 0.29 % ID/g
Heart accumulation (20 min): 3.63 ± 0.46 % ID/g
Heart accumulation (30 min): 3.73 ± 0.48 % ID/g
Heart accumulation (60 min): 3.76 ± 0.39 % ID/g
Heart accumulation (120 min): 3.31 ± 0.06 % ID/g

CCOCCN1CC[P](CCCOC)(CCCOC)[99Tc+]2(#[N])([S]C(N(CCOCC)C(C)C)=[S]2)[P](CCCOC)(CCCOC)CC1 [[^99m−Tc(N) (PNP5) (ISOET)^+]]
Heart accumulation (0 min): 3.35 ± 0.51 % ID/g
Heart accumulation (2 min): 2.33 ± 0.17 % ID/g
Heart accumulation (10 min): 2.91 ± 0.36 % ID/g
Heart accumulation (20 min): 2.86 ± 0.07 % ID/g
Heart accumulation (30 min): 2.47 ± 0.49 % ID/g
Heart accumulation (60 min): 2.74 ± 0.19 % ID/g
Heart accumulation (120 min): 2.44 ± 0.05 % ID/g

CCOCCC[P]1(CCCOCC)CCN(CCOCC)CC[P](CCCOCC)(CCCOCC)[99Tc+]12(#[N])[S]C(N(CCOCC)CCOCC)=[S]2 [[^99m−Tc(N) (PNP6) (DBODC)^+]]
Heart accumulation (0 min): 2.26 ± 0.82 % ID/g
Heart accumulation (2 min): 1.24 ± 0.14 % ID/g
Heart accumulation (10 min): 1.39 ± 0.30 % ID/g
Heart accumulation (20 min): 1.18 ± 0.18 % ID/g
Heart accumulation (30 min): 1.05 ± 0.19 % ID/g
Heart accumulation (60 min): 1.10 ± 0.11 % ID/g
Heart accumulation (120 min): 1.29 ± 0.16 % ID/g
